Measurements: the NIST ThermoML archive (doi:10.1016/j.jct.2016.12.019)

Assay: xn = mol fraction of the nth substance listed
Conditions: 100 kPa, Liquid; for viscosity: Capillary tube (Ostwald / Ubbelohde) method; for speed of sound: Frequency=2 MHz, Linear variable-path acoustic interferometer; for mass density: Vibrating tube method

CCN(CC)c1ccccc1 [N,N-diethylaniline] + CCCCCCCCCCO
Conditions | mass density [kg/m3] | speed of sound [m/s] | viscosity [mPa·s]
303.15 K, x1 = 0.1141 | 831.36 | 1364.5 | 7.932
303.15 K, x1 = 0.2218 | 839.38 | 1366.8 | 6.521
303.15 K, x1 = 0.3717 | 852.13 | 1372.3 | 4.96
303.15 K, x1 = 0.4886 | 863.05 | 1378.1 | 4.007
303.15 K, x1 = 0.5815 | 872.51 | 1383.9 | 3.386
303.15 K, x1 = 0.6645 | 881.58 | 1390.1 | 2.918
303.15 K, x1 = 0.7545 | 892.16 | 1398.3 | 2.494
303.15 K, x1 = 0.8324 | 902.01 | 1406.8 | 2.185
303.15 K, x1 = 0.9121 | 912.85 | 1417.5 | 1.929
303.15 K, x1 = 1 | 925.8 | 1432 | 1.711
308.15 K, x1 = 0.1141 | 827.63 | 1345.2 | 6.651
308.15 K, x1 = 0.2218 | 835.9 | 1347.8 | 5.497
308.15 K, x1 = 0.3717 | 848.55 | 1353.7 | 4.217
308.15 K, x1 = 0.4886 | 859.44 | 1359.9 | 3.43
308.15 K, x1 = 0.5815 | 868.83 | 1366 | 2.914
308.15 K, x1 = 0.6645 | 877.84 | 1372.5 | 2.523
308.15 K, x1 = 0.7545 | 888.35 | 1380.9 | 2.167
308.15 K, x1 = 0.8324 | 898.14 | 1389.7 | 1.913
308.15 K, x1 = 0.9121 | 908.91 | 1400.6 | 1.705
308.15 K, x1 = 1 | 921.8 | 1416 | 1.537
313.15 K, x1 = 0.1141 | 824 | 1329.2 | 5.619
313.15 K, x1 = 0.2218 | 832.24 | 1331.8 | 4.671
313.15 K, x1 = 0.3717 | 844.85 | 1337.5 | 3.616
313.15 K, x1 = 0.4886 | 855.71 | 1343.5 | 2.963
313.15 K, x1 = 0.5815 | 865.07 | 1349.5 | 2.529
313.15 K, x1 = 0.6645 | 874.05 | 1355.7 | 2.199
313.15 K, x1 = 0.7545 | 884.52 | 1363.8 | 1.898
313.15 K, x1 = 0.8324 | 894.28 | 1372.3 | 1.687
313.15 K, x1 = 0.9121 | 905.03 | 1382.9 | 1.52
313.15 K, x1 = 1 | 917.9 | 1398 | 1.4
318.15 K, x1 = 0.1141 | 819.43 | 1320.2 | 4.835
318.15 K, x1 = 0.2218 | 827.69 | 1321.6 | 4.032
318.15 K, x1 = 0.3717 | 840.35 | 1326.2 | 3.137
318.15 K, x1 = 0.4886 | 851.26 | 1331 | 2.582
318.15 K, x1 = 0.5815 | 860.67 | 1336 | 2.21
318.15 K, x1 = 0.6645 | 869.69 | 1341.2 | 1.928
318.15 K, x1 = 0.7545 | 880.21 | 1348 | 1.672
318.15 K, x1 = 0.8324 | 890.03 | 1355.4 | 1.493
318.15 K, x1 = 0.9121 | 900.83 | 1364.7 | 1.359
318.15 K, x1 = 1 | 913.8 | 1378 | 1.276

CCN(CC)c1ccccc1 [N,N-diethylaniline] + CCCCCCCCCO
Conditions | mass density [kg/m3] | speed of sound [m/s] | viscosity [mPa·s]
303.15 K, x1 = 0.1136 | 829.82 | 1359 | 6.563
303.15 K, x1 = 0.2326 | 840.12 | 1362.8 | 5.409
303.15 K, x1 = 0.3469 | 850.43 | 1367.6 | 4.509
303.15 K, x1 = 0.4541 | 860.76 | 1373.5 | 3.804
303.15 K, x1 = 0.5549 | 871.13 | 1380.2 | 3.248
303.15 K, x1 = 0.6498 | 881.45 | 1387.8 | 2.805
303.15 K, x1 = 0.7293 | 890.62 | 1395.3 | 2.488
303.15 K, x1 = 0.8244 | 902.24 | 1405.9 | 2.166
303.15 K, x1 = 0.9041 | 912.58 | 1416.7 | 1.938
303.15 K, x1 = 1 | 925.8 | 1432 | 1.711
308.15 K, x1 = 0.1136 | 826.24 | 1336.3 | 5.491
308.15 K, x1 = 0.2326 | 836.48 | 1340.6 | 4.557
308.15 K, x1 = 0.3469 | 846.76 | 1346.2 | 3.828
308.15 K, x1 = 0.4541 | 857.04 | 1352.7 | 3.252
308.15 K, x1 = 0.5549 | 867.33 | 1360.1 | 2.794
308.15 K, x1 = 0.6498 | 877.63 | 1368.3 | 2.427
308.15 K, x1 = 0.7293 | 886.75 | 1376.3 | 2.164
308.15 K, x1 = 0.8244 | 898.32 | 1387.7 | 1.898
308.15 K, x1 = 0.9041 | 908.61 | 1399.2 | 1.714
308.15 K, x1 = 1 | 921.8 | 1416 | 1.537
313.15 K, x1 = 0.1136 | 822.7 | 1315.3 | 4.791
313.15 K, x1 = 0.2326 | 832.9 | 1320 | 3.988
313.15 K, x1 = 0.3469 | 843.13 | 1325.9 | 3.362
313.15 K, x1 = 0.4541 | 853.37 | 1332.7 | 2.867
313.15 K, x1 = 0.5549 | 863.63 | 1340.4 | 2.471
313.15 K, x1 = 0.6498 | 873.88 | 1348.9 | 2.154
313.15 K, x1 = 0.7293 | 882.96 | 1357.1 | 1.926
313.15 K, x1 = 0.8244 | 894.48 | 1368.8 | 1.697
313.15 K, x1 = 0.9041 | 904.74 | 1380.6 | 1.541
313.15 K, x1 = 1 | 917.9 | 1398 | 1.4
318.15 K, x1 = 0.1136 | 817.68 | 1295.7 | 3.979
318.15 K, x1 = 0.2326 | 827.96 | 1300.3 | 3.341
318.15 K, x1 = 0.3469 | 838.28 | 1306.2 | 2.843
318.15 K, x1 = 0.4541 | 848.61 | 1312.9 | 2.447
318.15 K, x1 = 0.5549 | 858.95 | 1320.6 | 2.128
318.15 K, x1 = 0.6498 | 869.3 | 1328.9 | 1.869
318.15 K, x1 = 0.7293 | 878.48 | 1337.1 | 1.683
318.15 K, x1 = 0.8244 | 890.11 | 1348.6 | 1.498
318.15 K, x1 = 0.9041 | 900.48 | 1360.3 | 1.377
318.15 K, x1 = 1 | 913.8 | 1378 | 1.276

CCN(CC)c1ccccc1 [N,N-diethylaniline] + CCCCCCCCO
Conditions | mass density [kg/m3] | speed of sound [m/s] | viscosity [mPa·s]
303.15 K, x1 = 0.1157 | 828.58 | 1338.2 | 5.469
303.15 K, x1 = 0.2012 | 836.5 | 1342.6 | 4.863
303.15 K, x1 = 0.3115 | 847.11 | 1349.2 | 4.178
303.15 K, x1 = 0.4221 | 858.24 | 1357.3 | 3.59
303.15 K, x1 = 0.5111 | 867.57 | 1364.9 | 3.18
303.15 K, x1 = 0.6217 | 879.68 | 1375.9 | 2.743
303.15 K, x1 = 0.7135 | 890.17 | 1386.8 | 2.433
303.15 K, x1 = 0.8063 | 901.22 | 1399.4 | 2.162
303.15 K, x1 = 0.9045 | 913.42 | 1414.7 | 1.915
303.15 K, x1 = 1 | 925.8 | 1432 | 1.711
308.15 K, x1 = 0.1157 | 824.98 | 1317.3 | 4.653
308.15 K, x1 = 0.2012 | 832.86 | 1321.9 | 4.155
308.15 K, x1 = 0.3115 | 843.43 | 1329.1 | 3.59
308.15 K, x1 = 0.4221 | 854.51 | 1337.7 | 3.132
308.15 K, x1 = 0.5111 | 863.81 | 1345.7 | 2.762
308.15 K, x1 = 0.6217 | 875.86 | 1357.3 | 2.397
308.15 K, x1 = 0.7135 | 886.3 | 1368.4 | 2.137
308.15 K, x1 = 0.8063 | 897.3 | 1381.4 | 1.913
308.15 K, x1 = 0.9045 | 909.45 | 1397.3 | 1.704
308.15 K, x1 = 1 | 921.8 | 1416 | 1.537
313.15 K, x1 = 0.1157 | 820.38 | 1300 | 3.991
313.15 K, x1 = 0.2012 | 828.3 | 1304.5 | 3.58
313.15 K, x1 = 0.3115 | 838.94 | 1311.6 | 3.112
313.15 K, x1 = 0.4221 | 850.09 | 1320.2 | 2.707
313.15 K, x1 = 0.5111 | 859.45 | 1328.2 | 2.422
313.15 K, x1 = 0.6217 | 871.58 | 1339.5 | 2.118
313.15 K, x1 = 0.7135 | 882.1 | 1350.5 | 1.899
313.15 K, x1 = 0.8063 | 893.18 | 1363.3 | 1.708
313.15 K, x1 = 0.9045 | 905.42 | 1379.3 | 1.536
313.15 K, x1 = 1 | 917.9 | 1398 | 1.4
318.15 K, x1 = 0.1157 | 815.85 | 1286.3 | 3.504
318.15 K, x1 = 0.2012 | 823.79 | 1290.4 | 3.151
318.15 K, x1 = 0.3115 | 834.47 | 1297 | 2.748
318.15 K, x1 = 0.4221 | 845.67 | 1304.9 | 2.398
318.15 K, x1 = 0.5111 | 855.06 | 1312.4 | 2.154
318.15 K, x1 = 0.6217 | 867.24 | 1323 | 1.889
318.15 K, x1 = 0.7135 | 877.8 | 1333.2 | 1.701
318.15 K, x1 = 0.8063 | 888.93 | 1345.1 | 1.535
318.15 K, x1 = 0.9045 | 901.24 | 1360.1 | 1.388
318.15 K, x1 = 1 | 913.8 | 1378 | 1.276
